Experimental data from US20230303565A1, “PESTICIDALLY ACTIVE HETEROCYCLIC DERIVATIVES WITH SULFUR CONTAINING SUBSTITUENTS” (SYNGENTA CROP PROTECTION AG, priority 2020, published 2023).

Tests used:
Assay type in all cases: in vivo
[1] = test system: Chilo suppressalis (Striped Rice Stemborer); assay: Activity against Chilo suppressalis (striped rice stemborer), artificial diet in 24-well plates; details: 144 h, application rate of 200 ppm, L2 larvae, 6 days after infestation, in comparison to untreated samples, read-out: control (at least one of mortality, anti-feedant effect, growth inhibition)
Description: Example B1: Activity Against Chilo suppressalis (Striped Rice Stemborer)
24-well microtiter plates with artificial diet were treated with aqueous test solutions prepared from 10′000 ppm DMSO stock solutions by pipetting. After drying, the plates were infested with L2 larvae (6-8 per well). The samples were assessed for mortality, anti-feeding effect, and growth inhibition in comparison to untreated samples 6 days after infestation. Control of Chilo suppressalis by a test sample is given when at least one of the categories mortality, anti-feedant effect, and growth inhibition is higher than the untreated sample.

[2] = test system: Diabrotica Balteata (Corn Root Worm); assay: Activity against Diabrotica balteata (corn root worm), maize sprouts on agar; details: 96 h, application rate of 200 ppm, L2 larvae, 4 days after infestation, in comparison to untreated samples, read-out: effect in at least one of the two categories (mortality or growth inhibition)
Description: Example B2: Activity Against Diabrotica Balteata (Corn Root Worm)
Maize sprouts placed onto an agar layer in 24-well microtiter plates were treated with aqueous test solutions prepared from 10′000 ppm DMSO stock solutions by spraying. After drying, the plates were infested with L2 larvae (6 to 10 per well). The samples were assessed for mortality and growth inhibition in comparison to untreated samples 4 days after infestation.

[3] = test system: Plutella xylostella (Diamond Back Moth); assay: Activity against Plutella xylostella (diamond back moth), artificial diet in 24-well plates; details: 192 h, application rate of 200 ppm, Plutella eggs, 8 days after infestation, in comparison to untreated samples, read-out: effect in at least one of the two categories (mortality or growth inhibition)
Description: Example B6: Activity Against Plutella xylostella (Diamond Back Moth)
24-well microtiter plates with artificial diet were treated with aqueous test solutions prepared from 10′000 ppm DMSO stock solutions by pipetting. After drying, Plutella eggs were pipetted through a plastic stencil onto a gel blotting paper and the plate was closed with it. The samples were assessed for mortality and growth inhibition in comparison to untreated samples 8 days after infestation.

[4] = test system: Spodoptera littoralis (Egyptian Cotton Leaf Worm); assay: Activity against Spodoptera littoralis (Egyptian cotton leaf worm), cotton leaf discs; details: foliar, 72 h, application rate of 200 ppm, L1 larvae, 3 days after infestation, in comparison to untreated samples, read-out: control (at least one of mortality, anti-feedant effect, growth inhibition)
Description: Example B7: Activity Against Spodoptera littoralis (Egyptian Cotton Leaf Worm)
Cotton leaf discs were placed onto agar in 24-well microtiter plates and sprayed with aqueous test solutions prepared from 10′000 ppm DMSO stock solutions. After drying the leaf discs were infested with five L1 larvae. The samples were assessed for mortality, anti-feeding effect, and growth inhibition in comparison to untreated samples 3 days after infestation. Control of Spodoptera littoralis by a test sample is given when at least one of the categories mortality, anti-feedant effect, and growth inhibition is higher than the untreated sample.

[5] = test system: Bemisia tabaci (Cotton White Fly); assay: Activity against Bemisia tabaci (cotton white fly), cotton leaf discs; details: foliar, 144 h, application rate of 200 ppm, adult white flies, 6 days after incubation
Description: Example B8: Activity Against Bemisia tabaci (Cotton White Fly)
Cotton leaf discs were placed on agar in 24-well microtiter plates and sprayed with aqueous test solutions prepared from 10′000 ppm DMSO stock solutions. After drying the leaf discs were infested with adult white flies. The samples were checked for mortality 6 days after incubation.

[6] = test system: Myzus persicae (Green Peach Aphid); assay: Activity against Myzus persicae (green peach aphid), feeding/contact activity, sunflower leaf discs; details: foliar, 144 h, application rate of 200 ppm, aphid population of mixed ages, 6 days after infestation
Description: Example B5: Activity Against Myzus persicae (Green Peach Aphid) Feeding/Contact Activity
Sunflower leaf discs were placed onto agar in a 24-well microtiter plate and sprayed with aqueous test solutions prepared from 10′000 ppm DMSO stock solutions. After drying, the leaf discs were infested with an aphid population of mixed ages. The samples were assessed for mortality 6 days after infestation.

[7] = test system: Carpocapsa (Cydia) Pomonella (Codling Moth); assay: Activity against Carpocapsa (Cydia) pomonella (codling moth), larvicide, feeding/contact, diet cubes; details: 336 h, application rate of 12.5 ppm, L1 larvae, 14 days after infestation, 26-27° C.
Description: Example B9: Activity Against Carpocapsa (Cydia) Pomonella (Codling Moth)) Larvicide, Feeding/Contact
Diet cubes coated with paraffin were sprayed with diluted test solutions in an application chamber. After drying off the treated cubes (10 replicates) were infested with 1 L1 larvae. Samples were incubated at 26-27° C. and checked 14 days after infestation for mortality and growth inhibition.

[8] = test system: Euschistus heros (Neotropical Brown Stink Bug); assay: Activity against Euschistus heros (neotropical brown stink bug), soybean leaves on agar; details: 120 h, application rate of 200 ppm, N2 nymphs, 5 days after infestation, in comparison to untreated samples, read-out: effect in at least one of the two categories (mortality or growth inhibition)
Description: Example B3: Activity Against Euschistus heros (Neotropical Brown Stink Bug)
Soybean leaves on agar in 24-well microtiter plates were sprayed with aqueous test solutions prepared from 10′000 ppm DMSO stock solutions. After drying the leaves were infested with N2 nymphs. The samples were assessed for mortality and growth inhibition in comparison to untreated samples 5 days after infestation.

[9] = test system: Frankliniella occidentalis (Western Flower Thrips); assay: Activity against Frankliniella occidentalis (western flower thrips), feeding/contact activity, sunflower leaf discs; details: foliar, 168 h, application rate of 200 ppm, population of mixed ages, 7 days after infestation
Description: Example B4: Activity Against Frankliniella occidentalis (Western Flower Thrips) Feeding/Contact Activity
Sunflower leaf discs were placed on agar in 24-well microtiter plates and sprayed with aqueous test solutions prepared from […] stock solutions. After drying the leaf discs were infested with a Frankliniella population of mixed ages. The samples were assessed for mortality 7 days after infestation.

CCS(=O)(=O)c1c(N2Cc3ccc(C4(C#N)CC4)cc3C2=O)nn2ccc(C(F)(F)F)cc12 [P3, 1-[2-[3-ethylsulfonyl-5-(trifluoromethyl)pyrazolo[1,5-a]pyridin-2-yl]-3-oxo-isoindolin-5-yl]cyclopropanecarbonitrile]
≥ 80%: percent control (mortality, anti-feedant effect or growth inhibition) at 200 ppm [1] | percent effect (mortality or growth inhibition) at 200 ppm [2] | percent effect (mortality or growth inhibition) at 200 ppm [3] | percent control (mortality, anti-feedant effect or growth inhibition) at 200 ppm [4] | mortality at 200 ppm [5]

CCS(=O)(=O)c1c(N2Cc3ncc(C4CC4)cc3C2=O)nc2ccc(C(F)(F)F)cn12 [P11, 3-cyclopropyl-6-[3-ethylsulfonyl-6-(trifluoromethyl)imidazo[1,2-a]pyridin-2-yl]-7H-pyrrolo[3,4-b]pyridin-5-one]
≥ 80%: percent control (mortality, anti-feedant effect or growth inhibition) at 200 ppm [1] | percent effect (mortality or growth inhibition) at 200 ppm [3] | percent control (mortality, anti-feedant effect or growth inhibition) at 200 ppm [4]

CCS(=O)(=O)c1c(N2Cc3ccc(C4(C#N)CC4)cc3C2=O)nc2ccc(C3CC3)cn12 [P5, 1-[2-(6-cyclopropyl-3-ethylsulfonyl-imidazo[1,2-a]pyridin-2-yl)-3-oxo-isoindolin-5-yl]cyclopropanecarbonitrile]
≥ 80%: percent control (mortality, anti-feedant effect or growth inhibition) at 200 ppm [1] | percent effect (mortality or growth inhibition) at 200 ppm [2] | percent effect (mortality or growth inhibition) at 200 ppm [3] | percent control (mortality, anti-feedant effect or growth inhibition) at 200 ppm [4]

CCS(=O)(=O)c1c(N2Cc3ccc(S(=O)(=O)C4CC4)cc3C2=O)nc2ccc(C(F)(F)F)cn12 [P8, 6-cyclopropylsulfonyl-2-[3-ethylsulfonyl-6-(trifluoromethyl)imidazo[1,2-a]pyridin-2-yl]isoindolin-1-one]
≥ 80%: percent control (mortality, anti-feedant effect or growth inhibition) at 200 ppm [1] | percent effect (mortality or growth inhibition) at 200 ppm [2] | mortality at 200 ppm [6] | percent effect (mortality or growth inhibition) at 200 ppm [3] | percent control (mortality, anti-feedant effect or growth inhibition) at 200 ppm [4] | mortality at 12.5 ppm [7]

CCS(=O)(=O)c1c(N2Cc3ccc(C4(C#N)CC4)cc3C2=O)nc2ccc(C(F)(F)F)cn12 [P1, 1-[2-[3-ethylsulfonyl-6-(trifluoromethyl)imidazo[1,2-a]pyridin-2-yl]-3-oxo-isoindolin-5-yl]cyclopropanecarbonitrile]
≥ 80%: percent control (mortality, anti-feedant effect or growth inhibition) at 200 ppm [1] | percent effect (mortality or growth inhibition) at 200 ppm [2] | percent effect (mortality or growth inhibition) at 200 ppm [8] | mortality at 200 ppm [9] | mortality at 200 ppm [6] | percent effect (mortality or growth inhibition) at 200 ppm [3] | percent control (mortality, anti-feedant effect or growth inhibition) at 200 ppm [4] | mortality at 12.5 ppm [7]

CCS(=O)(=O)c1c(N2Cc3ncc(C4(C#N)CC4)cc3C2=O)nc2ccc(C(F)(F)F)cn12 [P2, 1-[6-[3-ethylsulfonyl-6-(trifluoromethyl)imidazo[1,2-a]pyridin-2-yl]-5-oxo-7H-pyrrolo[3,4-b]pyridin-3-yl]cyclopropanecarbonitrile]
≥ 80%: percent control (mortality, anti-feedant effect or growth inhibition) at 200 ppm [1] | percent effect (mortality or growth inhibition) at 200 ppm [2] | percent effect (mortality or growth inhibition) at 200 ppm [8] | mortality at 200 ppm [9] | mortality at 200 ppm [6] | percent effect (mortality or growth inhibition) at 200 ppm [3] | percent control (mortality, anti-feedant effect or growth inhibition) at 200 ppm [4] | mortality at 12.5 ppm [7]

CCS(=O)(=O)c1c(N2Cc3cnc(C4CC4)cc3C2=O)nc2ccc(C(F)(F)F)cn12 [P10, 6-cyclopropyl-2-[3-ethylsulfonyl-6-(trifluoromethyl)imidazo[1,2-a]pyridin-2-yl]-3H-pyrrolo[3,4-c]pyridin-1-one]
≥ 80%: percent control (mortality, anti-feedant effect or growth inhibition) at 200 ppm [1] | percent effect (mortality or growth inhibition) at 200 ppm [2] | percent effect (mortality or growth inhibition) at 200 ppm [3] | percent control (mortality, anti-feedant effect or growth inhibition) at 200 ppm [4]

CCS(=O)(=O)c1c(N2Cc3ccc(C4(C#N)CC4)cc3C2=O)nc2ccc(C(C)(F)F)cn12 [P4, 1-[2-[6-(1,1-difluoroethyl)-3-ethylsulfonyl-imidazo[1,2-a]pyridin-2-yl]-3-oxo-isoindolin-5-yl]cyclopropanecarbonitrile]
≥ 80%: percent control (mortality, anti-feedant effect or growth inhibition) at 200 ppm [1] | percent effect (mortality or growth inhibition) at 200 ppm [2] | mortality at 200 ppm [6] | percent effect (mortality or growth inhibition) at 200 ppm [3] | percent control (mortality, anti-feedant effect or growth inhibition) at 200 ppm [4] | mortality at 200 ppm [5] | mortality at 12.5 ppm [7]

CCS(=O)(=O)c1c(N2Cc3ccc(C4CC4)cc3C2=O)nc2ccc(C(F)(F)F)cn12 [P12, 6-cyclopropyl-2-[3-ethylsulfonyl-6-(trifluoromethyl)imidazo[1,2-a]pyridin-2-yl]isoindolin-1-one]
≥ 80%: percent control (mortality, anti-feedant effect or growth inhibition) at 200 ppm [1] | percent effect (mortality or growth inhibition) at 200 ppm [2] | percent effect (mortality or growth inhibition) at 200 ppm [3] | percent control (mortality, anti-feedant effect or growth inhibition) at 200 ppm [4]

CCS(=O)(=O)c1c(N2Cc3ccc(OC(C)(C)C#N)cc3C2=O)nc2ccc(C(F)(F)F)cn12 [P9, 2-[2-[3-ethylsulfonyl-6-(trifluoromethyl)imidazo[1,2-a]pyridin-2-yl]-3-oxo-isoindolin-5-yl]oxy-2-methyl-propanenitrile]
≥ 80%: percent control (mortality, anti-feedant effect or growth inhibition) at 200 ppm [1] | percent effect (mortality or growth inhibition) at 200 ppm [2] | mortality at 200 ppm [6] | percent effect (mortality or growth inhibition) at 200 ppm [3] | percent control (mortality, anti-feedant effect or growth inhibition) at 200 ppm [4] | mortality at 200 ppm [5]

CCS(=O)(=O)c1c(N2Cc3ccc(C4(C#N)CC4)cc3C2=O)nc2ccc(C(C)(C)C#N)cn12 [P7, 1-[2-[6-(1-cyano-1-methyl-ethyl)-3-ethylsulfonyl-imidazo[1,2-a]pyridin-2-yl]-3-oxo-isoindolin-5-yl]cyclopropanecarbonitrile]
≥ 80%: percent control (mortality, anti-feedant effect or growth inhibition) at 200 ppm [1] | percent effect (mortality or growth inhibition) at 200 ppm [2] | percent effect (mortality or growth inhibition) at 200 ppm [3] | percent control (mortality, anti-feedant effect or growth inhibition) at 200 ppm [4]

CCS(=O)(=O)c1c(N2Cc3ccc(C4(C#N)CC4)cc3C2=O)nc2ccc(C3(C#N)CC3)cn12 [P6, 1-[2-[6-(1-cyanocyclopropyl)-3-ethylsulfonyl-imidazo[1,2-a]pyridin-2-yl]-3-oxo-isoindolin-5-yl]cyclopropanecarbonitrile]
≥ 80%: percent control (mortality, anti-feedant effect or growth inhibition) at 200 ppm [1] | percent effect (mortality or growth inhibition) at 200 ppm [2] | mortality at 200 ppm [9] | mortality at 200 ppm [6] | percent effect (mortality or growth inhibition) at 200 ppm [3] | percent control (mortality, anti-feedant effect or growth inhibition) at 200 ppm [4] | mortality at 200 ppm [5] | mortality at 12.5 ppm [7]
